The text below walks through data of patent publication US10301264B2, “Compounds useful for treating ocular neovasculan” (The University of Nottingham, priority 2012, dated 2019).

For one test, the target named is SRPK1 (Homo sapiens, UniProt Q96SB4). Put plainly: In vitro kinase assay (Kinase-Glo), SRPK1. Type of test: biochemical. Particulars: for activity in the in vitro SRPK1 kinase assay: words.
Another test has as its system CNV lesion area. The conditions noted are these: cited from earlier work.
The target in another test is SRPK2 (Homo sapiens, UniProt P78362). Put plainly: In vitro kinase assay, SRPK2. In kind it is biochemical.
Chain of SRPK2 (P78362 whole entry, species assumed, canonical isoform): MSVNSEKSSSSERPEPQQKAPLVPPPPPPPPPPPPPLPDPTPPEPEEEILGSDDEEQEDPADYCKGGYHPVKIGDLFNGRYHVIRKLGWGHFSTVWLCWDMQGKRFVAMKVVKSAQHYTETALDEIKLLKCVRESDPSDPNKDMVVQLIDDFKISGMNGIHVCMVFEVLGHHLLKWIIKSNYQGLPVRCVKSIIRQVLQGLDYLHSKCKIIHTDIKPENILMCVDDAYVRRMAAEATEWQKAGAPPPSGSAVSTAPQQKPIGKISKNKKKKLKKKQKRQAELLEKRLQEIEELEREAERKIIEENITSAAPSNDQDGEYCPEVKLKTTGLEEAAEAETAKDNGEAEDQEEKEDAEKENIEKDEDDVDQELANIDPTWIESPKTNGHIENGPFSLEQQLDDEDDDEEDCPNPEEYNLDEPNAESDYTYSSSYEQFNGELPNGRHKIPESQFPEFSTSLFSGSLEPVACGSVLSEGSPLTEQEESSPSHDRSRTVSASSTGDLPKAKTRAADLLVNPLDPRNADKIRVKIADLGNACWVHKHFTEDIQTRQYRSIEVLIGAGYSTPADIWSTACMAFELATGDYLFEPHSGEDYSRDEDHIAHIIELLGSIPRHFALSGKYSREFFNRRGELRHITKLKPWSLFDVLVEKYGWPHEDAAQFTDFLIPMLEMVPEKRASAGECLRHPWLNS
Test [1] has as its system VEGF165 mRNA isoforms in primary RPE cells. Nature of the test: RT-PCR for VEGF165 / VEGF165b mRNA in primary RPE cells. In kind it is cell-based, human. The conditions noted are these: 5 μM, 24 hours, primary RPE cells. How it is done:
ID NO: 5)). […] Cells were treated with […]6 and 7 and the PCR repeated.

Another test relates to VEGF protein expression. Nature of the test: PanVEGF and VEGFxxxb ELISA. Particulars: FIG. 2C. Type of test: cell-based, human. How it is done: PanVEGF and VEGFxxxb enzyme-linked immunosorbent assay (ELISA).
One μg/ml pan-VEGF capture antibody (Duoset VEGF ELISA DY-293; R&D systems) was incubated overnight at room temperature. The plates were blocked (Superblock; Thermo Scientific) and serial dilutions of recombinant human (rh)VEGF165 or rhVEGF165b standards (ranging from 4 ng/ml to 16.25 pg/ml) were added, incubated alongside sample lysates, typically diluted 1:10. The plate was incubated for one hour at 37° C. with shaking, washed and incubated with 100 μl/well of either biotinylated goat anti-human VEGF (0.1 μg/ml; R & D systems) or mouse anti-human VEGF165b (0.25 μg/ml) for one further hour at 37° C. After washing, 100 μl/well of Horseradish Peroxidase (HRP)-conjugated streptavidin (1:200; R&D Systems) was added, and plates were left at room temperature for 20 minutes.
The plates were washed and colour change induced with substrate A and B (DY-999; R&D Systems) for 20 mins under light protection. The reaction was stopped by addition of 100 μl/well of 1M H2SO4 and the absorbance was read immediately in an ELISA plate reader (Dynex Technologies Opsys MR system plate reader) at 450 nm with a control reading at 570 nm. Revelation Quicklink 4.25 software was also used to calculate a standard curve from mean absorbance values of standards enabling the estimation of VEGF concentration for each sample.

Test [2] deals with SRSF1 expression in ARPE-19 cells. Nature of the test: SRSF1 expression relative to tubulin in ARPE-19 cells. Type of test: cell-based, human. The conditions noted are these: 72 hours up to six days. The method, then:
Protein samples (30-50 μg) were mixed with 1× sodium-dodecyl sulphate (SDS) loading buffer (100 mM Tris-HCl, 4% SDS, 20% glycerol, 0.2% (w/v) bromophenol blue, and 5% final concentration 2-mercaptoethanol, pH6.8). To denature the protein, samples were boiled for five minutes at 100° C.
Samples were subjected to polyacrylamide gel electrophoresis (PAGE) on a 12% SDS-PAGE gel at 90V in ice cold running buffer (25 mM Tris-HCl, 250 mM glycine, 0.1% SDS, pH8.3) for approximately 2.5 hours. The separated proteins were then electrophoretically blotted to a methanol-activated polyvinylidene fluoride (PVDF) membrane (Fisher Scientific) by wet transfer for two hours at 90V in transfer buffer (50 mM Tris-HCl, 38 mM glycine, 20% methanol, pH8.3). […] The washes were repeated and the bands were detected using the Enhanced Chemoluminiscence (ECL) SuperSignal West Femto Maximum Sensitivity Substrate kit (Pierce).
The SRPK inhibitors were tested in a series of in vitro assays to determine the effect of treatment on VEGF isoform expression. Initially the effect of compound treatment on SRPK1 and SRSF1 expression was determined.

The test system of test [3] is SRPK1 expression in ARPE-19 cells. Nature of the test: SRPK1 expression in ARPE-19 cells (western blot). In kind it is cell-based, human. Particulars: 10 μM, up to six days.
In another test the test system is laser-induced CNV. Nature of the test: Laser-induced mouse CNV model, intravitreal injection. Type of test: in vivo. How it is done: Laser Lesion Induction Protocol
Six to eight week-old C57/B6 mice (B&K Laboratories) and adult Norway-Brown rats (Harlan Laboratories) were anaesthetized with an intraperitoneal injection of a mixture of 50 mg/kg ketamine and 0.5 mg/kg medetomidine. The pupils were dilated with 2.5% phenylephrine hydrochloride and 1% tropicamide. Four photocoagulation lesions were delivered with a krypton red laser (Mice: 250 mW, 0.01 s, 75 μm, Rats: 200 mW, 0.01 s, 75 μm, IRIS Medical 810 nm Oculight Slx laser) between the retinal vessels in a peripapillary distribution at a distance of 1-2 disc-diameters in each eye. Only laser lesions with a subretinal bubble at the time of treatment were included in the study. […] Animals were culled on either day 4 or day 14 and eyes were either unfixed for retinal dissection and protein extraction, or fixed and enucleated and choroids stained for isolectin-B4 and examined.

For a further test, the system named is neovascular AMD. Particulars: 0.5 mg monthly, at one year; cited from earlier work.
The mark [4] stands for this setting: Table 1, read-out: IC50 (nM) for SRPK1.

Like-named read-outs stand apart in the source and are kept apart here.

Chain of SRPK1 (Q96SB4 whole entry, species assumed): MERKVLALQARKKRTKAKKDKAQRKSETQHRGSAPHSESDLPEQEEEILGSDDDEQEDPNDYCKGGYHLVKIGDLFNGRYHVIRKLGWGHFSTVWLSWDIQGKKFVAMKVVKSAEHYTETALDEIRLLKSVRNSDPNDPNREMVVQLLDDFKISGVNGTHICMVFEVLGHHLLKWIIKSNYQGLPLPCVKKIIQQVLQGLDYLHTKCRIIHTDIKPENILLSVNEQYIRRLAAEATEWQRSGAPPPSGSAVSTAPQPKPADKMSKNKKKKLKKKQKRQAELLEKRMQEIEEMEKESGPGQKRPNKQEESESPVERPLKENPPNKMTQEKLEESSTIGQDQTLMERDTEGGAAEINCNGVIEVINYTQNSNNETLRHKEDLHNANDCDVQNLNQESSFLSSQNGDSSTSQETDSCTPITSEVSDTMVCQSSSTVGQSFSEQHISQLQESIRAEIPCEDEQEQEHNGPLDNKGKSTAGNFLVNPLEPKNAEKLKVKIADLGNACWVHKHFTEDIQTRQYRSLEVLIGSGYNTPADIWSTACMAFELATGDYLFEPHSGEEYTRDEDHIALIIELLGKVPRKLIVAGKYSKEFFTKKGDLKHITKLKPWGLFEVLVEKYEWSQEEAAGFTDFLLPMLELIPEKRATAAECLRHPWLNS

Take `CN(C)CCN1CCN(c2ccc(C(F)(F)F)cc2NC(=O)c2ccc(-c3cccnc3)o2)CC1` [SPHINX6]: the IC50 (as a rule, the point on the concentration scale where inhibition reaches its midpoint) on SRPK1 (FIG. 7, read-out: SRPK1 inhibition IC50) worked out at 173 nM; on SRPK1 (setting [4]), 177 nM.

For the molecule `CN(C)CCNc1ccc(C(F)(F)F)cc1NC(=O)c1ccc(-c2cccnc2)o1` [SPHINX8], on SRPK1 (setting [4]), the IC50 was 9310 nM. The “activity in the in vitro SRPK1 kinase assay” value (shortened to “activity”) on SRPK1 is “no activity”.

Turning to `CN1CCN(c2ccc(C(F)(F)F)cc2NC(=O)c2ccc(-c3cccnc3)o2)CC1` [SPHINX12], the IC50 at SRPK1 (setting [4]) was 367 nM.

In the case of `O=C(Nc1cc(C(F)(F)F)ccc1NCc1cccnc1)c1ccc(-c2cccnc2)o1` [SPHINX9], the IC50 at SRPK1 (setting [4]) is above 10000 nM. For the same molecule, the “activity” value on SRPK1 is given as “no activity”.

Consider `CN1CCN(c2ccc(C(F)(F)F)cc2NC(=O)c2ccc(C#N)o2)CC1` [SPHINX14], for which the IC50 on SRPK1 (setting [4]) worked out at 1270 nM.

As to `O=C(Nc1cc(C(F)(F)F)ccc1NCc1cccnc1)c1ccc(-c2ccncc2)o1` [SPHINX10], the IC50 on SRPK1 (setting [4]) is above 10000 nM. Moreover, the “activity” value on SRPK1 is recorded as “no activity”.

Regarding `Cc1cc(-c2cc(OC(=O)c3ccccc3)ccc2Cl)cc2nnc(Nc3ccc(OCCN4CCCC4)cc3)nc12` [TG100801], the CNV lesion area result is on record as “not” in the test on CNV lesion area (twice daily topical 0.6%) and “significantly reduced CNV lesion area” in the test with CNV lesion area (twice daily topical 1%).

In the case of `O=C(Nc1cc(C(F)(F)F)ccc1N1CCOCC1)c1cccnc1` [MVRL09, N-[2-(morpholin-4-yl)-5-(trifluoromethyl)phenyl]pyridine-3-carboxamide], the IC50 on SRPK1 (FIG. 1B, read-out: IC50 SRPK1 kinase) was above 10000 nM. In addition, the “inhibition of SRPK2” value at SRPK2 (words) is given as “no inhibition”. For the same molecule, in [1], the “expression of VEGF165b mRNA” value is listed as “induced clear expression of VEGF165b” and the “expression of VEGF165 mRNA relative to GAPDH” value was “reduced the expression VEGF65 at RNA level”. In addition, the “VEGF expression relative to total protein” value in the test on VEGF protein expression is listed as “significantly reduced total VEGF expression”. Besides, in test [2], the “expression of SRSF1 relative to a tubulin control” value is “reduced expression of SRSF1”. Besides, the SRPK1 expression result in test [3] is on record as “failed to affect SRPK1 expression”.

`Cc1ccc(C(=O)Nc2cc(C(F)(F)F)ccc2N2CCOCC2)o1` [SPHINX, 5-methyl-N-[2-(morpholin-4-yl)-5-(trifluoromethyl)phenyl]furan-2-carboxamide]: at SRPK2, the “preference for SRPK1 over SRPK2” value is given as “greater than 10 fold”. The inhibition (usually the change of the read-out against control, counted positive when it falls) at 10 µM at SRPK2 (at 10 μM) worked out at 10%. Moreover, the “area of neovascular lesions, mouse laser-induced CNV model” value with laser-induced CNV (discussion summary, route not stated) is “achieving significance”. The “neovascular area vs control injected eyes” value in the test on laser-induced CNV (two intravitreal injections of 10 ng, mouse) was “significantly reduced neovascular area”. Moreover, in test [3], the SRPK1 expression entry is recorded as “did appear to reduce SRPK1 expression”.

B1: Lucentis: humanized anti-VEGF antibody fragment, FDA approved for the treatment of neovascular AMD (antibody, chains of the INN, looked up, V domains shown)
VH: EVQLVESGGGLVQPGGSLRLSCAASGYDFTHYGMNWVRQAPGKGLEWVGWINTYTGEPTYAADFKRRFTFSLDTSKSTAYLQMNSLRAEDTAVYYCAKYPYYYGTSHWYFDVWGQGTLVTVSS
VL: DIQLTQSPSSLSASVGDRVTITCSASQDISNYLNWYQQKPGKAPKVLIYFTSSLHSGVPSRFSGSGSGTDFTLTISSLQPEDFATYYCQQYSTVPWTFGQGTKVEIK
modifications: Fab
notes: humanized anti-VEGF antibody fragment, FDA approved for the treatment of neovascular AMD
Regarding B1, in the test on neovascular AMD, the “patients who maintained visual acuity (loss of <15 letters)” value was “approximately 95%” and the “patients with improved vision (gain of ≥15 letters)” value is reported as at most 40%.
